Tests used:
[1] = tested on: CCNE1-amplified cell lines (COV318, OVCAR3); test: Cell cycle analysis by FACS in CCNE1-amplified cell lines; format: cell-based, human; conditions: COV318 and OVCAR3; 16 hours after treatment; compared to DMSO
Description: (§1) The effect of CDK4/6-inhibition in CCNE1-amplified versus CCNE1-non-amplified cell lines was evaluated.
(§2) A similar experiment was performed in a larger set of CCNE1-amplified cell lines (COV318 and OVCAR3) and CCNE1-non-amplified cell lines (COV504, OV56, and Igrov1) (FIG. 6).
(§3) Bulk DNA was stained with DAPI. Compound-treated and DMSO treated control cells were acquired with CytoFlex (Beckman Coulter) and were analyzed using the FlowJo software. For cell cycle analysis of cells with siRNA knockdown, 72 hours after siRNA transfection, cells exposed to 10 μM EdU for 3 hours before detection of Click-iT Alexa Fluor® 647 azide kit.

[2] = tested on: Rb phosphorylated on serine 780 in CCNE1 amplified COV318 cells; test: CDK2 pRb (S780) HTRF cellular assay; format: cell-based; conditions: Homo sapiens, FIG. 10B
Description: CDK2 pRb ([…]) HTRF cellular assay enables the quantitative detection of Rb phosphorylated on […] in CCNE1 amplified COV318 cells. The assay comprised two antibodies: Europium cryptate labeled anti-Phospho-Rb […] antibody (donor) and d2 labeled anti-Rb antibody (acceptor). […] The final concentrations of compounds start from 3 μM. […] After 2 h of incubation at room temperature, HTRF signals were measured on the PHERAstar microplate reader (BMG Labtech), using 340 nm as excitation wavelength, a 620 nm filter for the Europium donor fluorescence, and a 665-nm filter for the acceptor fluorescence detection. HTRF signals were calculated as the HTRF ratio (ratio of fluorescence measured at 665 nm and 620 nm)×10000.

[3] = tested on: CCNE1-non-amplified cell lines (COV504, OV56, Igrov1); test: Cell cycle analysis by FACS in CCNE1-non-amplified cell lines; format: cell-based, human
Description: as §1, §2, §3

[4] = tested on: Rb phosphorylation at S780 in CCNE1-non-amplified cell lines (COV504 and OV56); test: Western blot of Rb phosphorylation at S780 in CCNE1-non-amplified cell lines; format: cell-based, human; conditions: one or 15 hours after treatment, various doses
Description: The effect of CDK4/6-inhibition on Rb phosphorylation at S780 in CCNE1-amplified versus CCNE1-non-amplified cell lines was evaluated. […] One or 15 hours after treatment, the cells were harvested and total protein was extracted and analyzed by western blot (FIG. 8).
Whole cell extracts were prepared using RIPA buffer (Thermo Scientific, 89900) with a Halt Protease and Phosphatase Inhibitor Cocktail (Thermo Scientific, 78440). Protein concentration was quantified with a BCA Protein Assay Kit (Thermo Scientific, 23225) and 40 μg of protein lysates were loaded for SDS-PAGE using precast gradient gels (Bio-Rad, Hercules, No. 456-1094). Samples were diluted in 5×Laemmli buffer (300 mM Tris-HCl pH 6.8, 10% SDS (w/v), 5% 2-mercaptoethanol, 25% glycerol (v/v), 0.1% bromophenol blue w/v) and boiled for 5 minutes. […] of proteins were separated by 8-15% SDS-PAGE and transferred onto polyvinylidene fluoride (PVDF) membranes. Unspecific binding sites on the PVDF membranes were blocked with 5% non-fat milk in TBST (20 mM Tris-HCl, pH 7.6, 137 mM NaCl, 1% Tween-20). […] Images were captured by Luminescence/Fluorescence Imaging System Odyssey CLx Imager (LI-COR).

In the case of `CC(=O)c1c(C)c2cnc(Nc3ccc(N4CCNCC4)cn3)nc2n(C2CCCC2)c1=O` [palbociclib], the “percentage of cells at the S phase” value [1] is reported as “not significantly different”, the IC50 [2] is reported as over 3000 nM and the “percentage of cells at the S phase” value ([3]; COV504, OV56, Igrov1, 16 hours after treatment, compared to DMSO) is reported as “decreased in CCNE1-non-amplified cell lines in a dose-dependent fashion”. For the same compound, the “proliferation (cell cycle analysis by FACS)” value ([3]; COV504 cells, sixteen hours after treatment, increasing concentrations) was “dose-dependent inhibition of the proliferation” and the “Rb phosphorylation at S780” value [4] was “blocked Rb phosphorylation at S780”.
